Conditions: pH 8
Description: Note that in the present invention, as an index of the “water solubility” in a “water-soluble drug” or a “water-soluble steroid”, a distribution coefficient (octanol/water distribution coefficient) can be employed. The distribution coefficient can be expressed by log D by taking into consideration of the influence of pH, and the water solubility is indicated by a minus value, while the liposolubility lipophilicity is indicated by a plus value.
The distribution coefficient can be obtained in accordance with the method described in JIS Z7260-107 or […].

| Substance | distribution coefficient (log D) |
| --- | --- |
| dexamethasone metasulfobenzoate sodium | −2 |
| prednisolone sodium phosphate | 0 |

Reference: patent US20210060320A1, “TRANSDERMAL DRUG DELIVERY SYSTEM AND METHOD FOR USING SAME” (NICHIBAN CO., LTD., priority 2017, published 2021)
